# Reference: US20230067847A1, “COMBINATION OF BERBERINE AND DERIVATIVES THEREOF, AND VITAMIN B12” (NANJING NUTRABUILDING BIO-TECH CO., LTD., priority 2021, published 2023)
# Key:
# high-fat diet (HFD) mice [1] = assay: Fasting blood glucose in HFD mice during 3 months of supplementation; format: in vivo; conditions: after three months (12th week), gavage once daily, FIG. 1a
# Protocol: (§1) The high-fat diet (HFD, containing 60% fat by energy) mice at 8 weeks of age were divided into three groups: (1) non-supplement group (Con, n=5); (2) DHB supplement group (DHB, 100 mg/kg, n=5); […] VB12=100 mg/kg: 200 mg/kg, n=5). All mice were administered these things before each major meal for once daily (2 g/kg body weight) by gavage in normal saline solution for 3 months. Blood samples were collected from tail tips in a fasting state to measure serum VB 12, serum homocysteine, glucose, and serum holo-transcobalamin II (holo-TCII, a biologically active fraction for TCII receptors synthesis) and weighed the mice for 0th, 2th, 4th, 6th, 8th, 10th and 12th week. After 3 months of supplementation, glycated hemoglobin (HbA1c) was measured. Also, the insulin tolerance test was performed after 3 months of supplementation after subcutaneous injection of insulin (0.4 U/kg, 0.05 ml/10 g body weight) for 0, 30, 90 minutes. […] Elevated homocysteine was defined as > 15 µM/L. Vitamin B12 levels and holo-TCII were measured by using immunoassay analyzer to confirm the improvement in TCII receptors synthesis and VB12 levels. Serum homocysteine levels were measured using the chemiluminescent microparticle immunoassay to show the VB12 levels. HbA1c was determined with automated glycohemoglobin analyzer, which can indicate the effect of blood glucose control during the trial. […]
# high-fat diet (HFD) mice [2] = assay: Serum VB12 level in HFD mice (immunoassay analyzer); conditions: mouse, in vivo
# Protocol: The high-fat diet (HFD, containing 60% fat by energy) mice at 8 weeks of age were divided into three groups: (1) non-supplement group (Con, n=5); (2) DHB supplement group (DHB, 100 mg/kg, n=5); (3) the combination of DHB and VB12 supplement group (DHB+VB12, DHB: VB12=100 mg/kg: 200 mg/kg, n=5). All mice were administered these things before each major meal for once daily (2 g/kg body weight) by gavage in normal saline solution for 3 months.
# Blood samples were collected from tail tips in a fasting state to measure serum VB 12, serum homocysteine, glucose, and serum holo-transcobalamin II (holo-TCII, a biologically active fraction for TCII receptors synthesis) and weighed the mice for 0th, 2th, 4th, 6th, 8th, 10th and 12th week. After 3 months of supplementation, glycated hemoglobin (HbA1c) was measured. […] Elevated homocysteine was defined as > 15 µM/L. Vitamin B12 levels and holo-TCII were measured by using immunoassay analyzer to confirm the improvement in TCII receptors synthesis and VB12 levels. Serum homocysteine levels were measured using the chemiluminescent microparticle immunoassay to show the VB12 levels. HbA1c was determined with automated glycohemoglobin analyzer, which can indicate the effect of blood glucose control during the trial. […]
# high-fat diet (HFD) mice [3] = assay: Insulin tolerance test in HFD mice after 3 months of supplementation; format: in vivo; conditions: 90 minutes after subcutaneous insulin 0.4 U/kg, FIG. 1d
# Protocol: as §1
# high-fat diet (HFD) mice [4] = assay: Glycated hemoglobin (HbA1c) in HFD mice after 3 months of supplementation; format: in vivo; conditions: after three months of supplementation, FIG. 1e
# Protocol: as §1
smiles,measurement,setting,value
"COc1ccc2c(c1OC)CN1CCc3cc4c(cc3C1=C2)OCO4 [DHB, dihydroberberine]",blood glucose level decreased compared to the control group,high-fat diet (HFD) mice [1],about 35%
same,serum total VB12 change,high-fat diet (HFD) mice [2],significantly decreased
same,blood glucose level lower than control group in insulin tolerance test,high-fat diet (HFD) mice [3],about 15%
same,HbA1c level decreased compared to the control group,high-fat diet (HFD) mice [4],about 20%
